This note sets out measurements from patent US20240383856A1 (Zedira GmbH, priority 2021, published 2024).

Each structure is given as a SMILES string.

Data set [1] deals with T1, recombinant human transglutaminase 2 (Homo sapiens, UniProt P21980).
T1 construct: purchased Zedira T022
T1 sequence (P21980 1-687): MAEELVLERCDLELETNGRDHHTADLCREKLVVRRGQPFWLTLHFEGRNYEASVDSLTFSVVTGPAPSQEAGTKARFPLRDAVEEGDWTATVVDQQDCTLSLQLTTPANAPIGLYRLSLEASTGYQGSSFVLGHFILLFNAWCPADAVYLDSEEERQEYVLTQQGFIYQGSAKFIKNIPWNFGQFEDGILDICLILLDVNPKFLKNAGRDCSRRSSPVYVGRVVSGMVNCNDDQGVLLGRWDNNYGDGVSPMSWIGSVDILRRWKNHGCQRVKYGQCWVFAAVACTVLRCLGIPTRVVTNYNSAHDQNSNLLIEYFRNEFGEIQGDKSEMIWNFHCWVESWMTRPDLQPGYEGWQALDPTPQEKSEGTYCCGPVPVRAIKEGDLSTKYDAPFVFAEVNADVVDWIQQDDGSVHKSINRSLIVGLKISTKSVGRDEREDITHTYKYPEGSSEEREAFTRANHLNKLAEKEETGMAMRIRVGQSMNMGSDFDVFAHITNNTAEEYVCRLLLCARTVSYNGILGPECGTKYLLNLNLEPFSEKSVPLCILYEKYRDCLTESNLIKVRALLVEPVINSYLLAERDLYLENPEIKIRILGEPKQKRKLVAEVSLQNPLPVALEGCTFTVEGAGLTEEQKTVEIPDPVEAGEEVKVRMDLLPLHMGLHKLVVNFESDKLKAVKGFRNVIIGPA
Kind of data set: Transglutaminase assay (DCC-assay): incorporation of dansylcadaverine into dimethylcasein. The format is biochemical. To be noted: recombinant human TG2 10 nM; dansylcadaverine incorporation into dimethylcasein; read-out: IC50 TG2. In a few lines: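 Recombinant human TG2 (10 nM final) incorporates dansylcadaverine into N,N-dimethylcasein. Reaction mix: 50 mM Tris-HCl, 10 mM CaCl2, 10 mM glutathione, 2.5% glycerol, 16.7 µM dansylcadaverine, 4 µM dimethylcasein, 200 mM NaCl, pH 8.0. Fluorescence (ex 330/em 500 nm) was followed 30 min at 37 °C; the 20–30 min slope, expressed as % of 2% DMSO control, gave IC50.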

The nature of data set [2]: logD by shake flask method (octanol / PBS pH 7.4, HPLC). The format is physicochemical. To be noted: octanol / PBS pH 7.4, shake flask. In a few lines: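 Shake-flask partition of compound between octanol and phosphate-buffered saline at pH 7.4, with each phase quantified by HPLC to give LogD.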
The nature of data set [3]: Caco-2 permeability assay (CacoReady kit). The class given is in vitro ADME. The note with it: human, Caco-2, Caco-2 barrier, CacoReady kit; above 1×10^−6 cm/s classified as permeable. An outline of the steps: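 Papp values come from Caco-2 barrier studies intended to predict oral bioavailability; the manufacturer's procedure for the ready-made kit was followed.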

Take `Cc1c(C(=O)N[C@@H](CCC(=O)C(N)=O)C(=O)Nc2cccn(CC(=O)N[C@@H]3C[C@@H]4CC[C@H]3C4)c2=O)oc2ccccc12` [II-149, (S)-N1-(1-(2-((1S,2R,4R)-bicyclo[2.2.1]heptan-2-ylamino)-2-oxoethyl)-2-oxo-1,2-dihydropyridin-3-yl)-2-(3-methylbenzofuran-2-carboxamido)-5-oxohexanediamide]: the IC50 – broadly, the concentration at which inhibition is half-maximal – in data set [1] was less than 40 nM. For the same compound, the log distribution coefficient (logD) – broadly, lipophilicity at a set pH, counting ionised and neutral species – in data set [2] was less than 1. For the same compound, the Papp (as a rule, the rate of passage across a membrane or cell layer, normalised by area and donor concentration) in data set [3] fell in the range of 1 to 10 ×10⁻⁶ cm/s.
`CNC(=O)C(=O)CC[C@H](NC(=O)c1c[nH]cc1C(C)(C)C)C(=O)Nc1cccn(CCC23CC4CC(CC(C4)C2)C3)c1=O` [II-164]: the IC50 in data set [1] was in the range of 400 to 2500 nM. The logD in data set [2] is 3 to 5. Further, the Papp in data set [3] was 1 to 10 ×10⁻⁶ cm/s.
As to `C=CCNC(=O)C(=O)CC[C@H](NC(=O)c1cc2ccccc2o1)C(=O)Nc1cccn(CC(=O)NC2C3CC4CC(C3)CC2C4)c1=O` (stereo partly drawn) [II-119, (S)-N1-allyl-5-(benzofuran-2-carboxamido)-N6-(1-(2-(2-adamantylamino)-2-oxoethyl)-2-oxo-1,2-dihydropyridin-3-yl)-2-oxohexanediamide], the IC50 in data set [1] lay in the range of 40 to 400 nM. For the same compound, in data set [2], the logD fell in the range of 3 to 5. In addition, the Papp in data set [3] fell in the range of 1 to 10 ×10⁻⁶ cm/s.
For the compound `CNC(=O)C(=O)CC[C@H](NC(=O)c1csnn1)C(=O)Nc1cccn(CC(=O)NC23CC(C2)C3)c1=O` [II-198, (S)-N1-(1-(2-(bicyclo[1.1.1]pentan-1-ylamino)-2-oxoethyl)-2-oxo-1,2-dihydropyridin-3-yl)-N6-methyl-5-oxo-2-(1,2,3-thiadiazole-4-carboxamido)hexanediamide], the IC50 in data set [1] was in the range of 40 to 400 nM. The compound also came in with a logD in data set [2] of less than 1. This compound showed an apparent permeability coefficient (Papp) in data set [3] of less than 1 ×10⁻⁶ cm/s.
For the compound `CNC(=O)C(=O)CC[C@H](NC(=O)c1snnc1C)C(=O)Nc1cccn(CC(=O)NC2C3CC4CC(C3)CC2C4)c1=O` (stereo partly drawn) [II-141, (S)-N1-(1-(2-(2-adamantylamino)-2-oxoethyl)-2-oxo-1,2-dihydropyridin-3-yl)-N6-methyl-2-(4-methyl-1,2,3-thiadiazole-5-carboxamido)-5-oxohexanediamide], the IC50 in data set [1] is 40 to 400 nM. In data set [2], this compound registered a logD of less than 1. This compound gave a Papp in data set [3] of less than 1 ×10⁻⁶ cm/s.
On to `CNC(=O)C(=O)CC[C@H](NC(=O)c1scc(C)c1Cl)C(=O)Nc1cccn(CC(=O)NC2C3CC4CC(C3)CC2C4)c1=O` (stereo partly drawn) [II-43, (S)-2-(3-chloro-4-methylthiophene-2-carboxamido)-N1-(1-(2-(2-adamantylamino)-2-oxoethyl)-2-oxo-1,2-dihydropyridin-3-yl)-N6-methyl-5-oxohexanediamide], for which the IC50 in data set [1] was 400 to 2500 nM. This compound gave a logD in data set [2] of 1 to 3. In addition, the Papp in data set [3] lay within 1 to 10 ×10⁻⁶ cm/s.
Regarding `CNC(=O)C(=O)CC[C@H](NC(=O)c1coc(C(C)=O)n1)C(=O)Nc1cccn(CC(=O)NC23CC(C2)C3)c1=O` [II-168, (S)-2-(2-acetyloxazole-4-carboxamido)-N1-(1-(2-(bicyclo[1.1.1]pentan-1-ylamino)-2-oxoethyl)-2-oxo-1,2-dihydropyridin-3-yl)-N6-methyl-5-oxohexanediamide], in data set [1], the IC50 fell in the range of 40 to 400 nM. Also, the logD in data set [2] is less than 1. The compound also registered an apparent permeability (Papp) in data set [3] of less than 1 ×10⁻⁶ cm/s.
In the case of `CNC(=O)C(=O)CC[C@H](NC(=O)c1csc2ccccc12)C(=O)Nc1cccn(CC(=O)NC2C3CC4CC(C3)CC2C4)c1=O` (stereo partly drawn) [II-137, (S)-2-(benzo[b]thiophene-3-carboxamido)-N1-(1-(2-(2-adamantylamino)-2-oxoethyl)-2-oxo-1,2-dihydropyridin-3-yl)-N6-methyl-5-oxohexanediamide], the IC50 in data set [1] is 40 to 400 nM. In addition, the pH-dependent lipophilicity (logD) in data set [2] was 3 to 5. The compound further registered a Papp in data set [3] of 1 to 10 ×10⁻⁶ cm/s.
For the compound `CNC(=O)C(=O)CC[C@H](NC(=O)c1nc(Cl)sc1Cl)C(=O)Nc1cccn(CC(=O)NC2C3CC4CC(C3)CC2C4)c1=O` (stereo partly drawn) [II-32, (S)-2-(2,5-dichlorothiazole-4-carboxamido)-N1-(1-(2-(2-adamantylamino)-2-oxoethyl)-2-oxo-1,2-dihydropyridin-3-yl)-N6-methyl-5-oxohexanediamide], the IC50 in data set [1] is 40 to 400 nM. Besides, in data set [2], the logD fell in the range of 1 to 3. This compound showed a Papp in data set [3] of 1 to 10 ×10⁻⁶ cm/s.
On to `CNC(=O)C(=O)CC[C@H](NC(=O)c1snnc1CO)C(=O)Nc1cccn(CC(=O)NC2C3CC4CC(C3)CC2C4)c1=O` (stereo partly drawn) [II-206, (S)-2-(4-(hydroxymethyl)-1,2,3-thiadiazole-5-carboxamido)-N1-(1-(2-(2-adamantylamino)-2-oxoethyl)-2-oxo-1,2-dihydropyridin-3-yl)-N6-methyl-5-oxohexanediamide], for which the IC50 in data set [1] is 40 to 400 nM. For the same compound, the logD in data set [2] was less than 1. In data set [3], this compound came in with a Papp of less than 1 ×10⁻⁶ cm/s.
With `CNC(=O)C(=O)CC[C@H](NC(=O)c1oc2ccccc2c1C)C(=O)Nc1cccn(CC(=O)NC23CCCC4CC(CCC42)C3)c1=O` (stereo partly drawn) [II-103, (S)-N1-(1-(2-(4-homoisotwistane-3-amino)-2-oxoethyl)-2-oxo-1,2-dihydropyridin-3-yl)-N6-methyl-2-(3-methylbenzofuran-2-carboxamido)-5-oxohexanediamide], the IC50 in data set [1] lay in the range of 40 to 400 nM. This compound gave a log distribution coefficient (logD) in data set [2] of 1 to 3. This compound showed a Papp in data set [3] of 1 to 10 ×10⁻⁶ cm/s.
Take `CNC(=O)C(=O)CC[C@H](NC(=O)c1sc(Br)cc1Br)C(=O)Nc1cccn(CC(=O)NC2C3CC4CC(C3)CC2C4)c1=O` (stereo partly drawn) [II-22, (S)-2-(3,5-dibromothiophene-2-carboxamido)-N1-(1-(2-(2-adamantylamino)-2-oxoethyl)-2-oxo-1,2-dihydropyridin-3-yl)-N6-methyl-5-oxohexanediamide]: the half-maximal inhibitory concentration (IC50) in data set [1] is less than 40 nM. The compound also yielded a logD in data set [2] of 3 to 5. Also, the apparent permeability coefficient (Papp) in data set [3] fell in the range of 1 to 10 ×10⁻⁶ cm/s.
Turning to `CNC(=O)C(=O)CC[C@H](NC(=O)c1coc(S(N)(=O)=O)c1)C(=O)Nc1cccn(CC(=O)NC2C3CC4CC2CC(NC(C)=O)(C4)C3)c1=O` (stereo partly drawn) [II-193, (S)-N1-(1-(2-(1-acetylamino-4-aminoadamantane)-2-oxoethyl)-2-oxo-1,2-dihydropyridin-3-yl)-N6-methyl-5-oxo-2-(5-sulfamoylfuran-3-carboxamido)hexanediamide], the IC50 in data set [1] was in the range of 400 to 2500 nM. The compound further registered a logD in data set [2] of less than 1. This compound also came in with a Papp in data set [3] of less than 1 ×10⁻⁶ cm/s.
`O=C(Cn1cccc(NC(=O)[C@H](CCC(=O)C(=O)Nc2ccccc2)NC(=O)c2cc3ccccc3o2)c1=O)NC1C2CC3CC(C2)CC1C3` (stereo partly drawn) [II-122, (S)-2-(benzofuran-2-carboxamido)-N1-(1-(2-(2-adamantylamino)-2-oxoethyl)-2-oxo-1,2-dihydropyridin-3-yl)-5-oxo-N6-phenylhexanediamide]: the IC50 in data set [1] is 400 to 2500 nM. In data set [2], this compound came in with a logD of 3 to 5. The compound further registered an apparent permeability coefficient (Papp) in data set [3] of 1 to 10 ×10⁻⁶ cm/s.
Turning to `CNC(=O)C(=O)CC[C@H](NC(=O)c1cncn1C)C(=O)Nc1cccn(CC(=O)NC23CC4CC(CC(C4)C2)C3)c1=O` [II-207, (S)-N1-(1-(2-(1-adamantylamino)-2-oxoethyl)-2-oxo-1,2-dihydropyridin-3-yl)-N6-methyl-2-(1-methyl-1H-imidazole-5-carboxamido)-5-oxohexanediamide], the concentration for half-maximal inhibition (IC50) in data set [1] fell in the range of 40 to 400 nM. In data set [2], this compound displayed a logD of less than 1. This compound also gave a Papp in data set [3] of less than 1 ×10⁻⁶ cm/s.
In the case of `CNC(=O)C(=O)CC[C@H](NC(=O)c1oc(Br)cc1C)C(=O)Nc1cccn(CC(=O)NC2C3CC4CC(C3)CC2C4)c1=O` (stereo partly drawn) [II-25, (S)-2-(5-bromo-3-methylfuran-2-carboxamido)-N1-(1-(2-(2-adamantylamino)-2-oxoethyl)-2-oxo-1,2-dihydropyridin-3-yl)-N6-methyl-5-oxohexanediamide], the IC50 in data set [1] lay within 40 to 400 nM. In addition, in data set [2], the logD lay in the range of 1 to 3. For the same compound, the Papp in data set [3] is 1 to 10 ×10⁻⁶ cm/s.
